These results are taken from patent US20140086939A1, “COMPOSITIONS AND METHODS FOR DETECTING AND TREATING CANCER” (priority 2011, published 2014).

Data set [1] deals with Ikkβ^f/f and Ikkβ^Δ dih10 cells. In words: Subcutaneous tumor growth of implanted dih10 hepatoma cells in C57BL/6 mice. It counts as in vivo, mouse. How it is done: FIG. 20. IKKβ deletion in initiated cells enhances proliferation and self-renewal of HCC progenitors. (A) DEN-induced HCC (dih) cell strains from Ikkβ^f/f mice were cultured and infected with Adv-GFP or Adv-Cre. Whole cell lysates of infected dih10 cells were immunoblotted for IKKβ (bottom panel). The cells were further cultured without serum on Petri dishes to form hepatospheres (upper panels). Numbers of 1^0 and 2^0 hepatospheres formed per 100 plated cells were determined (n=3; *: p<0.05). Magnification bar=100 μm. (B) Ikkβ^f/f dih10 cells were infected with an empty retrovirus (vector) or a retrovirus expressing IκBα super-repressor (SR). Stably transfected cells were selected and cultured as above and hepatosphere formation was analyzed (n=3; *: p<0.05). (C, D) IKKβ expressing (Ikkβ^f/f) and deficient (Ikkβ^Δ) dih10 cells (2.5×10^6 each) were s.c. injected into 8 weeks old C57BL/6 mice. (C) Allograft volume was measured weekly (n=5; *: p<0.01). Dissected tumors are shown on the right. (D) BrdU incorporation into tumors was determined (n=5; *: p<0.05). (E) Ikkβ^f/f and Ikkβ^Δ dih12 cells were labeled with dsRed and 4×10^5 cells were seeded into MUP-uPA mouse livers. Relative amounts of dsRed DNA in transplanted MUP-uPA livers were determined by real-time PCR 3 weeks post-inoculation and normalized to actin DNA as a measurement of cell growth (n=5; *: p<0.05). (F) Ikkβ^Δ dih10 cells were reconstituted with a control vector or WT IKKβ expression vector and were s.c. injected into 8 weeks old C57BL/6 mice. Allograft volume was measured weekly (n=5; *: p<0.01). (G) Ikkβ^f/f and IkkβΔ dih10 cells were s.c. injected as above. Starting from day 2, mice were treated daily with MLN120B or vehicle by oral gavage. Tumor volume was measured weekly (n=5; *: p<0.01, f/f/control vs. f/f/MLN by one-way ANOVA). Please also see FIG. 27.
(§1) FIG. 22. ROS-mediated SHP1/2 inhibition in IKKβ-deficient HCCs correlates with STAT3 activation and accelerated tumor growth. (A) Tumors derived from Ikkβ^f/f (f/f) and Ikkβ^Δ (Δ) dih10 cells were collected and lysed. Tumor lysates were immunoprecipitated with an anti-JAK2 antibody and examined for JAK2 tyrosine phosphorylation with PY20 antibody. Tumor lysates were also used for immunoblot analyses with the indicated antibodies. (B) SHP1 and SHP2 were immunoprecipitated from above tumor lysates and their phosphatase activities were measured (n=4; *: p<0.05). (C) Fresh frozen sections of HCCs from transplanted MUP-uPA mice were analyzed for superoxide accumulation by DHE staining. Fluorescence intensity in several fields was quantitated by ImageJ and relative average increases in fluorescent intensity are shown (n=3; *: p<0.01). Magnification bar=100 μm. (D-F) Ikkβ^f/5 (f/f) and Ikkβ^Δ (Δ) dih10 cells […] each were s.c. implanted into 8 weeks old C57BL/6 mice. Starting on day 2, the mice were switched to a diet containing vehicle or BHA (0.7%) for 6 weeks. (D) Tumors were collected from BHA treated and untreated mice, lysed and SHP1/2 phosphatase activities were measured. The data were plotted as SHP1/2 phosphatase activities in Ikkβ^Δ tumors relative to activities in Ikkβ^f/f tumors (n=4; *: p<0.05). (E) Tumor lysates were used to determine JNK kinase activity and STAT3 phosphorylation. (F) Tumor volume was measured weekly (n=5; p<0.01, Δ/ctrl vs. Δ/BHA by one way ANOVA). Please also see FIG. 29.
FIG. 30. STAT3 is required for HCC formation and growth. (A-D) Ikkβ^f/f (f/f) and Ikkβ^Δ (Δ) dih10 cells were s.c. implanted into 8 weeks old C57BL/6 mice. (A) Starting on day 2, the mice were i.p. injected with vehicle (ctrl) or 0.5 mg/mouse AG490 daily. Tumor volume was measured (n=5; p<0.05, f/f/vehicle vs. f/f/AG490; p<0.01, Δ/vehicle vs. Δ/AG490 by one way ANOVA). (B) After 6 weeks, tumors were removed, lysed and analyzed by immunoblotting with the indicated antibodies. […] (D) After 6 weeks, tumors were removed and analyzed as above. […]

Data set [2] concerns human breast cancer cell line with constitutive STAT3 activity. To be noted: in vivo; cited from earlier work.
The next data set concerns Huh-7. The conditions noted are these: 5 mg/kg given every other day; cited from earlier work.
Data set [3] has as its system liver. To be noted: cited from earlier work.
In data set [4] the test system is STAT3 phosphorylation in Ikkβ^f/f dih10 cells. In words: IL-6 induced STAT3 phosphorylation by immunoblotting in dih10 cells. It counts as cell-based, mouse. To be noted: dih cells serum starved 48 hrs; 20 μM MLN120B; 10 ng/ml IL-6 30 min. The procedure:
(§2) FIG. 28. IKKβ ablation enhances STAT3 activation. (A) Ikkβ^f/f and Ikkβ^Δ dih10 cells were cultured under hepatosphere-forming conditions for 3 days and treated with 10 ng/ml of IL-6 for the indicated times. Whole cell lysates were analyzed by immunoblotting for STAT3 phosphorylation. (B) Ikkβ^f/f and Ikkβ^Δ dih10 cells were cultured under hepatosphere-forming conditions for 3 days and treated with 10 ng/ml of IL-22 for 30 min. STAT3 phosphorylation was analyzed as above. (C) Ikkβ^Δ dih10 cells were cultured under hepatosphere-forming conditions and infected with a control Adv or an Adv vector expressing constitutively active IKKβ^EE. The cells were treated with 10 ng/ml of IL-6 for 15 min and STAT3 phosphorylation was analyzed. (D) Ikkβ^f/f dih10 cells and HepG2 cells were serum starved for 48 hrs and treated with 20 μM MLN120B for the indicated times. The cells were then stimulated with 10 ng/ml of IL-6 for 30 min and STAT3 phosphorylation was analyzed by immunoblotting. Relative activities (RA) of STAT3 phosphorylation were determined by densitometry. (E) Ikkβ^f/f (f/f) and Ikkβ^Δ (Δ) HCCs from transplanted MUP-uPA mice were collected and total RNA was extracted. Expression of IL-6 and IL-22 mRNAs was measured by RT PCR.
(§3) RNA extraction and q-PCR were described (Sakurai et al., 2006). […] SHP1/2 phosphatase activities were determined as described (Lee and Esselman, 2002).

The test system of data set [5] is STAT3 phosphorylation in HepG2 cells. In words: IL-6 induced STAT3 phosphorylation by immunoblotting in HepG2 cells. The format is cell-based. The conditions noted are these: human liver cancer cell line (HepG2) serum starved 48 hrs; 20 μM MLN120B; 10 ng/ml IL-6 30 min. How it is done: as §2, §3
The next data set has as its target T1, STAT3 (Mus musculus, UniProt P42227).
T1 construct: from tissue; host or cells: subcutaneous tumors formed by Ikkβf/f or IkkβΔ dih10 cells in C57BL/6 mice
The experiment in a line: STAT3 phosphorylation in lysates of dih10 tumors (immunoblot). The format is in vivo. On the technique in general: In western blotting, separated proteins are transferred to a membrane and probed.

In data set [6] the test system is many different types of cancer cells transplanted into mice. The conditions noted are these: in vivo; cited from earlier work.
Another data set deals with SHP1 and SHP2. The experiment in a line: SHP1/2 phosphatase activities in lysates of dih10 tumors. It counts as in vivo, mouse. To be noted: diet containing BHA (0.7%) for 6 weeks.
Text: as §1, with “Starting on day 2, the mice were switched to a diet containing vehicle or BHA (0.7%) for 6 weeks.” left out, “The data were plotted as SHP1/2 phosphatase activities in Ikkβ^Δ tumors relative to activities in Ikkβ^f/f tumors (n=4; *: p<0.05). (E) Tumor lysates were used to determine JNK kinase activity and STAT3 phosphorylation.” left out, “Please also see FIG. 29.” left out
as §3

A further data set has as its system JNK. The experiment in a line: JNK kinase activity in lysates of dih10 tumors. The format is in vivo, mouse. The conditions noted are these: diet containing BHA (0.7%) for 6 weeks.
Text: as §1, with “Starting on day 2, the mice were switched to a diet containing vehicle or BHA (0.7%) for 6 weeks.” left out, “The data were plotted as SHP1/2 phosphatase activities in Ikkβ^Δ tumors relative to activities in Ikkβ^f/f tumors (n=4; *: p<0.05). (E) Tumor lysates were used to determine JNK kinase activity and STAT3 phosphorylation.” left out, “Please also see FIG. 29.” left out
as §3

The subject of the next data set is JAK2. In words: JAK2 phosphorylation in IKKβ-deficient tumors. It counts as in vivo, mouse. To be noted: BHA treatment of tumor-bearing mice.
Text: as §1, with “The data were plotted as SHP1/2 phosphatase activities in Ikkβ^Δ tumors relative to activities in Ikkβ^f/f tumors (n=4; *: p<0.05). (E) Tumor lysates were used to determine JNK kinase activity and STAT3 phosphorylation.” left out, “Please also see FIG. 29.” left out

In data set [7] the test system is liver. To be noted: cited from earlier work. The source holds these as a separate data set.
The mark [8] stands for this setting: s.c. dih10 in C57BL/6, MLN120B daily by oral gavage from day 2.
Where [9] appears, read: AG490 0.5 mg/mouse i.p. daily from day 2.
Where [10] appears, read: diet containing BHA (0.7%) for 6 weeks.

Entries after “also recorded” stand apart in the source; their conditions may differ.

T1 sequence (P42227 whole entry): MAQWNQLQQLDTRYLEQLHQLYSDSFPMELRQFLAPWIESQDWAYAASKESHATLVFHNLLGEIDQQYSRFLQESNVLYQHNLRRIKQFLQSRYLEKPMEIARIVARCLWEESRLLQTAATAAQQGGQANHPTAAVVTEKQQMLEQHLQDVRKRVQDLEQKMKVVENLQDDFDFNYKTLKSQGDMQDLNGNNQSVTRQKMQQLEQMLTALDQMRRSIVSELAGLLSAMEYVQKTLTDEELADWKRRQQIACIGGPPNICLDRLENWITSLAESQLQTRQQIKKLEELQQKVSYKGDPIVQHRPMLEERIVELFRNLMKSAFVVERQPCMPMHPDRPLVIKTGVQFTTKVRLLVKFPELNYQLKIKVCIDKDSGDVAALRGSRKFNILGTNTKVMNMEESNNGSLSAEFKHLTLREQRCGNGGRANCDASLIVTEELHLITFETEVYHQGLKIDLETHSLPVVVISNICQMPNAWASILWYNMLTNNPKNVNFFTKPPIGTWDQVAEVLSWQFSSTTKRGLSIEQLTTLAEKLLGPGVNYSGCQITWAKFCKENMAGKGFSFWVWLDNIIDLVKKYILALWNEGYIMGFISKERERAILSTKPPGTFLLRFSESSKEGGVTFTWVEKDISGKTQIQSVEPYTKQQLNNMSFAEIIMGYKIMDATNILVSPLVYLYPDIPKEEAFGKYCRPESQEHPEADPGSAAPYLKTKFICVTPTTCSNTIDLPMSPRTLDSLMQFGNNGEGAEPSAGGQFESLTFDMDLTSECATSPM

As for `Cc1ccc(S(=O)(=O)OCC(=O)Nc2ccc(C(=O)O)c(O)c2)cc1` [S3I-201], the “in vivo tumorigenic growth of dih cells” value in data set [1] is reported as “effective inhibition”. Besides, the “tumor growth of breast cancer xenografts” value in data set [2] is given as “inhibition of tumor growth”. In the data set on Huh-7, the “STAT3 tyrosine phosphorylation in Huh-7 xenografts” value was “inhibited” and the “tumor growth of Huh-7 xenografts” value is “inhibited”.
On to `CCN(CC)N=O` [DEN, diethyl nitrosamine], for which the HCC induction result in the data set on liver [3] (male mice older than 4 weeks of age) is “no longer effective in HCC induction on its own”. The “HCC induction, fraction of male mice” value with liver [3] (single dose to two-weeks-old mice) was 100%.
Turning to `COc1c(Cl)cc2c([nH]c3cnccc32)c1NC(=O)c1cccnc1C` [MLN120B], in data set [1] (setting [8]), the “tumorigenic growth (tumor volume) of Ikkβ^f/f dih cells” value is “enhanced tumorigenic growth” and the “tumorigenic growth (tumor volume) of Ikkβ^Δ dih cells” value is listed as “not Ikkβ^Δ cells”. Also, the “IL-6 induced STAT3 activation” value in [4] is reported as “enhanced IL-6 induced STAT3 activation”. Moreover, the “IL-6 induced STAT3 activation” value in data set [5] is “enhanced IL-6 induced STAT3 activation”.
In the case of `N#C/C(=C/c1ccc(O)c(O)c1)C(=O)NCc1ccccc1` [AG490], in data set [1], the “in vivo tumorigenic growth of dih cells” value is “effective inhibition”. In addition, in data set [1] (setting [9]), the “Ikkβ^f/f tumorigenic growth” value was “more modest effect” and the “growth of Ikkβ^Δ subcutaneous tumors” value is “inhibited the growth”. The “STAT3 activity in dih cell tumors” value at STAT3 is recorded as “effective inhibition”. The “STAT3 phosphorylation in tumors” value on STAT3 (AG490 0.5 mg/mouse i.p. daily, tumors after 6 weeks, both IKKβ status) is reported as “inhibited STAT3 phosphorylation regardless of IKKβ status”.
Consider `Cc1cc(Nc2nc(N[C@@H](C)c3ncc(F)cn3)ncc2Cl)n[nH]1` [AZD1480], for which, in [6], the “tumorigenic growth of cancer cells transplanted into mice” value was “Effective inhibition”.
`COc1ccc(O)c(C(C)(C)C)c1` [BHA, butylated hydroxyanisole]: the “Ikkβ^Δ tumor growth” value in data set [1] (setting [10]) was “inhibits tumor growth; also recorded: reduced Ikkβ^Δ tumor growth to a level that was similar to that of Ikkβ^f/f tumors in untreated mice”. The “SHP1/2 phosphatase activities in IKKβ-deficient tumors” value in the data set with SHP1 and SHP2 is listed as “restores SHP1/2 activity; also recorded: completely restored”. For the same compound, on STAT3 (setting [10]), the “STAT3 phosphorylation in tumors” value is “reduced”. Besides, the “JNK activity in tumors” value with JNK is “reduced JNK activity”. In addition, the “JAK2 phosphorylation in IKKβ-deficient tumors” value with JAK2 was “reduces”. Besides, the “liver damage, compensatory proliferation and hepatocarcinogenesis” value in the data set with liver [7] (Ikkβ^Δhep and Ikkγ^Δhep mutant mice, BHA consumption) is listed as “reversed”. In the data set with liver [7] (dietary administration), the “ROS accumulation in the liver” value is “can be prevented”.
